The values below come from patent US20250115582A1, “MOLECULAR GLUE DEGRADERS AND METHODS OF USING THE SAME” (Monte Rosa Therapeutics, Inc., priority 2022, published 2025).

The target in one data set is T1, CK1α (Homo sapiens, UniProt P48729+Q96SW2).
T1 construct: HEK293 clonal line with CRISPR KI HiBiT tag on CSNK1A1; host or cells: HEK293 clonal line, CRISPR HiBiT knock-in at CSNK1A1, stably expressing LgBiT
The experiment in a line: CK1α NanoBiT assay (HiBiT-tagged CSNK1A1 in HEK293 clonal line). It counts as cell-based. Particulars: HEK293 HiBiT-CSNK1A1/LgBiT cells, 24 h incubation, luminescence. The method, boiled down: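 HiBiT knock-in CSNK1A1 HEK293 cells stably expressing LgBiT were plated at 5000 cells/well in DMEM/10% FBS with 0.2% Endurazine live-cell substrate and pre-incubated 16 h. Compound was added to a final […] for 24 h at 37 °C before the luminescence read. Signal was normalised to plate controls, and DC50 came from a 3-parameter logistic fit (hillslope 1).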

A further data set has as its system GP2D. The data set is described as follows: GI50 growth inhibition, CyQUANT, GP2D. The format is cell-based. To be noted: GP2D cells, 120 to 168 hours. The method, then: (§1) SKCO1, LS180, and LS174T cell lines were purchased from ATCC. CW2 cell line was purchased from Riken. GP2D cell line was purchased from Sigma/ECACC. All cell lines were cultured in manufacturer's recommended media at 37° C., 5% CO2. Briefly, cells were suspended in 200 μL of media and seeded at 300 to 1,800 cells per well in tissue culture treated 96-well plates with black walls and clear bottom. Plates were incubated overnight and initial (T0) read was performed the following day using CyQUANT Direct Cell Proliferation Assay Kit (Thermo Fisher Scientific) according to manufacturer's protocol. All compounds were solubilized in DMSO and prepared at 3-fold serial dilution, using 9 points starting at 30 μM as highest concentration, administered to cells and incubated for 120 to 168 hours, at which point CyQUANT assay measurement was performed using Acumen Cellista instrument (Ex/Em 480/520 nm). Media-only wells were used as blank, and 0.3% DMSO was used as DMSO-treated cell control. Growth inhibition (percent response) was calculated using the following formula in Excel: “=if ([Compound treated Day N]>[Untreated Day 0, AVG], ([Compound treated Day N]−[Untreated Day 0, AVG])/([Untreated Day N]−[Untreated Day 0, AVG])*100, ([Compound Treated Day N]−[Untreated Day 0, AVG])/([Untreated Day 0, AVG])*100)”. GI50 is the response corresponding to the 50% of untreated control.
(§2) GI50 data are reported in Tables 4a, 4b, 4c, 4d, and 4e for compounds in Table 1. In Tables 4a, 4b, 4c, 4d, and 4e below, According to the code, A represents a GI50 value of ≤0.1 μM, B represents a GI50 value>0.1 μM and ≤1 μM, C represents an GI50 value>1 μM.

Another data set deals with LS180. The data set is described as follows: GI50 growth inhibition, CyQUANT, LS180. Particulars: Homo sapiens, LS180 cells, 120 to 168 hours. It counts as cell-based. On the procedure:
as §1, §2

A short description of data set [1]: Mouse oral PK at 10 mg/kg. The format is in vivo. Particulars: male BALB/c mice, PO 10 mg/kg, plasma. The method, then: Male BALB/c mice were fasted overnight and administered a discrete, PO dose of Compound 154 or Compound 147 at 10 mg/kg.
Blood samples were collected serially from three animals/time-point following PO administration of the test compounds to the mice and placed in tubes containing K2EDTA. The blood samples were centrifuged, and the aliquots of the resulting plasma stored frozen at −60 to −90° C.
The plasma samples were analyzed by LC-MS/MS to determine concentrations of the test compounds. The in-life portion of the study and the bioanalysis of plasma samples was conducted at Wuxi (China).
The pharmacokinetic parameters for compound 154 or compound 147 were calculated by non-compartmental analysis using Phoenix WinNonlin software.

T1 sequence (P48729 whole entry): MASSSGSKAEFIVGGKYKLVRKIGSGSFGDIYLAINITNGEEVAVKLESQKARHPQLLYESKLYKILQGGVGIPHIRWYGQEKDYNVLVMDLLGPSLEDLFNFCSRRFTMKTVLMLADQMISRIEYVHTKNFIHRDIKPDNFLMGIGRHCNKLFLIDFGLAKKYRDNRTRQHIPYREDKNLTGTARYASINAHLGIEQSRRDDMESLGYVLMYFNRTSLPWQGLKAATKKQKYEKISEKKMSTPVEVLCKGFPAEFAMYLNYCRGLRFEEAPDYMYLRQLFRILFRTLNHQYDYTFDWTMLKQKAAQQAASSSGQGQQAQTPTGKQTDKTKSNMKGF
T1 sequence (Q96SW2 whole entry): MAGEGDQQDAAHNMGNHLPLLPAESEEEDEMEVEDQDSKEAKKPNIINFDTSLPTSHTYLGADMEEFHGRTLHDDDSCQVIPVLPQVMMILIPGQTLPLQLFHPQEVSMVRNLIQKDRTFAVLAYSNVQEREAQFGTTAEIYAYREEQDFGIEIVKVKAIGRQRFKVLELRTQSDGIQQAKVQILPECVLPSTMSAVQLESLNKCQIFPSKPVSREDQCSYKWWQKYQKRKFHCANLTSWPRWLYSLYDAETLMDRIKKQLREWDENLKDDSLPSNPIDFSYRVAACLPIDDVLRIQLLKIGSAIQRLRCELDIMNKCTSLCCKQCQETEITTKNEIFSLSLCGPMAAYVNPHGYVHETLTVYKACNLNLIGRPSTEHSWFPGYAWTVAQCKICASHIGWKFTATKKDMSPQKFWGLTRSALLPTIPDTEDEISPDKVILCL
T1 sequence (Q16531 2-1140 partner limits assumed): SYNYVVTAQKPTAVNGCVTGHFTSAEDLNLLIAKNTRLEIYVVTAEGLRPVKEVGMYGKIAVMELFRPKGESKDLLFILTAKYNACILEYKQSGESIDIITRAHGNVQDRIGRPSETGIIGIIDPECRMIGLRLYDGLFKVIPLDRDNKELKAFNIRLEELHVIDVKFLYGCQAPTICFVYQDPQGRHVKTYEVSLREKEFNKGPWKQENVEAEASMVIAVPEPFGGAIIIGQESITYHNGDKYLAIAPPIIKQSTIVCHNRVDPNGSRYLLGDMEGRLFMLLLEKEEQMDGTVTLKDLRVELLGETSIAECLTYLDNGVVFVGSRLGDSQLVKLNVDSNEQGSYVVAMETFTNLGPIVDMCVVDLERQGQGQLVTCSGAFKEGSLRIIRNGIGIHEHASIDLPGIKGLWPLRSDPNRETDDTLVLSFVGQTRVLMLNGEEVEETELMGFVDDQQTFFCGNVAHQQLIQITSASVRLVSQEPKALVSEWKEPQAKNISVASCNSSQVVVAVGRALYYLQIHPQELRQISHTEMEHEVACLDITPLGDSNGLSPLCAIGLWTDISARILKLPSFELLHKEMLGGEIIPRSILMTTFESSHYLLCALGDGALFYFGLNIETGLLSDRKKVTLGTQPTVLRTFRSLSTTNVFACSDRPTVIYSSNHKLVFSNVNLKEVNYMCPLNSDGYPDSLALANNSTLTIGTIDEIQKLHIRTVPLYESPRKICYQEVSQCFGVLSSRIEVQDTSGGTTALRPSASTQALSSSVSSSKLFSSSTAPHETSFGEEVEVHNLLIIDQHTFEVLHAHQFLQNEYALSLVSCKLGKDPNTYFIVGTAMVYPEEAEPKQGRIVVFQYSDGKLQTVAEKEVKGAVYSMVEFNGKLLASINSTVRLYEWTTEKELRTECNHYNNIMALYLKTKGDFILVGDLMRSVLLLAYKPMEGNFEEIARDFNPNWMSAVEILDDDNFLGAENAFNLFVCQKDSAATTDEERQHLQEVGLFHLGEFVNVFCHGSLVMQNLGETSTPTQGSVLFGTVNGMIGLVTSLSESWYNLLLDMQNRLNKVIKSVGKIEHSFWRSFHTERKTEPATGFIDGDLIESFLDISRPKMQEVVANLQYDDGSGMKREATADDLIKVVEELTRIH

Molecule `O=C1CCC(N2Cc3cc(NC(=O)c4ccc(Cl)cc4)ccc3C2=O)C(=O)N1` (stereo not drawn) [Compound 147] gave a DC50 on CK1α of less than 0.1 µM. This molecule had a GI50 in the data set with GP2D greater than 1000 nM. Further, in the data set with LS180, the GI50 was greater than 1000 nM. Moreover, the Tmax in data set [1] came out at 30 min. In data set [1] (Mean ± SD), the AUC is 1210 ± 235 ng·h/mL, the AUC(0-t) was determined as 1170 ± 258 ng·h/mL and the Cmax turned out to be 574 ± 76.8 ng/mL.
At CK1α, `O=C1CCC(N2Cc3cc(NC(=O)c4ncn(-c5ccccc5)c4C(F)(F)F)ccc3C2=O)C(=O)N1` (stereo not drawn) [Compound 154, N-(2-(2,6-dioxopiperidin-3-yl)-1-oxoisoindolin-5-yl)-1-phenyl-5-(trifluoromethyl)-1H-imidazole-4-carboxamide] registered a DC50 of less than 0.1 µM. Also, the GI50 in the data set with GP2D lay in the range of 100 to 1000 nM. Besides, the GI50 in the data set with LS180 lay within 100 to 1000 nM. Also, the Tmax in data set [1] was determined as 60 min. In data set [1] (Mean ± SD), this molecule showed an AUC of 50900 ± 10400 ng·h/mL, an AUC(0-t) of 50900 ± 10300 ng·h/mL, a Cmax of 12900 ± 2560 ng/mL and a half-life of 131 ± 14.4 min.
